Assay results from patent publication US20100298141A1, “SUBSTITUTED PYRIDINE N-OXIDE HERBICIDES” (E. I. DU PONT DE NEMOURS AND COMPANY, priority 2007, published 2010).

Tests used:
[1] = test system: rice; assay: Test B flooded paddy test; format: in vivo, Oryza sativa; settings: Flood, 250 g ai/ha, 13 to 15 days; scale 0 to 100, 0 no effect, 100 complete control
Method in brief: (§1)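 Pots were flooded to 3 cm above the soil surface at treatment, compound applied directly to the paddy water, and that depth held throughout. Plants were kept in a greenhouse for 13 to 15 days, then visually rated against untreated controls.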

[2] = test system: barnyardgrass; assay: Test B flooded paddy test; format: in vivo, Echinochloa crus-galli; settings: Flood, 250 g ai/ha, 13 to 15 days; scale 0 to 100, 0 no effect, 100 complete control
Method in brief: as §1

[3] = test system: goosegrass; assay: Test G preemergence test; format: in vivo, Eleusine indica; settings: scale 0 to 100
[4] = test system: yellow nutsedge; assay: Test G preemergence test; format: in vivo, Cyperus esculentus; settings: scale 0 to 100
[5] = test system: field sandbur; assay: Test G preemergence test; format: in vivo, Cenchrus incertus; settings: scale 0 to 100
[6] = test system: barnyardgrass; assay: Test G preemergence test; format: in vivo, Echinochloa crus-galli; settings: scale 0 to 100
[7] = test system: umbrella sedge; assay: Test B flooded paddy test; format: in vivo, Cyperus difformis; settings: Flood, 250 g ai/ha, 13 to 15 days; scale 0 to 100, 0 no effect, 100 complete control
Method in brief: as §1

[8] = test system: annual bluegrass; assay: Test D preemergence test; format: in vivo, Poa annua; settings: scale 0 to 100
Method in brief: (§2)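 Preemergence application to planted seeds; compounds in non-phytotoxic solvent blend plus surfactant. Dash = not tested.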

[9] = test system: itchgrass; assay: Test G preemergence test; format: in vivo, Rottboellia cochinchinensis; settings: scale 0 to 100
[10] = test system: soybean; assay: Test G preemergence test; format: in vivo, Glycine max; settings: scale 0 to 100
[11] = test system: Italian ryegrass; assay: Test D preemergence test; format: in vivo, Lolium multiflorum; settings: scale 0 to 100
Method in brief: as §2

[12] = test system: woolly cupgrass; assay: Test G preemergence test; format: in vivo, Eriochloa villosa; settings: scale 0 to 100
[13] = test system: tall waterhemp; assay: Test G preemergence test; format: in vivo, Amaranthus tuberculatos; settings: scale 0 to 100
[14] = test system: wild oat; assay: Test D preemergence test; format: in vivo, Avena fatua; settings: scale 0 to 100
Method in brief: as §2

[15] = test system: littleseed canarygrass; assay: Test D preemergence test; format: in vivo, Phalaris minor; settings: scale 0 to 100
Method in brief: as §2

[16] = test system: winter barley; assay: Test D preemergence test; format: in vivo, Hordeum vulgare
Method in brief: as §2

[17] = test system: downy bromegrass; assay: Test D preemergence test; format: in vivo, Bromus tectorum; settings: scale 0 to 100
Method in brief: as §2

[18] = test system: yellow foxtail; assay: Test G preemergence test; format: in vivo, Pennisetum glaucum; settings: scale 0 to 100
[19] = test system: millet foxtail; assay: Test G preemergence test; format: in vivo, Setaria italica; settings: scale 0 to 100
[20] = test system: sorghum; assay: Test G preemergence test; format: in vivo, Sorghum vulgare; settings: scale 0 to 100
[21] = test system: corn; assay: Test G preemergence test; format: in vivo, Zea mays; settings: scale 0 to 100
[22] = test system: duck salad; assay: Test B flooded paddy test; format: in vivo, Heteranthera limosa; settings: Flood, 250 g ai/ha, 13 to 15 days; scale 0 to 100, 0 no effect, 100 complete control
Method in brief: as §1

[23] = test system: blackgrass; assay: Test D preemergence test; format: in vivo, Alopecurus myosuroides; settings: scale 0 to 100
Method in brief: as §2

[24] = test system: field violet; assay: Test D preemergence test; format: in vivo, Viola arvensis; settings: scale 0 to 100
Method in brief: as §2

[25] = test system: spring wheat; assay: Test D preemergence test; format: in vivo, Triticum aestivum; settings: scale 0 to 100
Method in brief: as §2

[26] = test system: winter wheat; assay: Test D preemergence test; format: in vivo, Triticum aestivum; settings: scale 0 to 100
Method in brief: as §2

Compound: Cn1nc(C(F)(F)F)c(C[S+]([O-])c2cccc[n+]2[O-])c1OC(F)F (centres unmarked) [Compound 3]
- Plant response rating, Rice, Transplanted [1]: 60
- Plant response rating, Barnyardgrass [2]: 60
- Plant response rating, Goosegrass ([3]; 31 g ai/ha): 65
- Plant response rating, Goosegrass ([3]; 62 g ai/ha): 80
- Plant response rating, Goosegrass ([3]; 125 g ai/ha): 100
- Plant response rating, Goosegrass ([3]; 250 g ai/ha): 100
- Plant response rating, Nutsedge, Yellow ([4]; 31 g ai/ha): 0
- Plant response rating, Nutsedge, Yellow ([4]; 62 g ai/ha): 15
- Plant response rating, Nutsedge, Yellow ([4]; 125 g ai/ha): 65
- Plant response rating, Nutsedge, Yellow ([4]; 250 g ai/ha): 65
- Plant response rating, Sandbur ([5]; 31 g ai/ha): 0
- Plant response rating, Sandbur ([5]; 62 g ai/ha): 35
- Plant response rating, Sandbur ([5]; 125 g ai/ha): 95
- Plant response rating, Sandbur ([5]; 250 g ai/ha): 95
- Plant response rating, Barnyardgrass ([6]; 31 g ai/ha): 0
- Plant response rating, Barnyardgrass ([6]; 62 g ai/ha): 70
- Plant response rating, Barnyardgrass ([6]; 125 g ai/ha): 100
- Plant response rating, Barnyardgrass ([6]; 250 g ai/ha): 100
- Plant response rating, Umbrella Sedge [7]: 100
- Plant response rating, Bluegrass ([8]; 31 g ai/ha): 0
- Plant response rating, Bluegrass ([8]; 62 g ai/ha): 20
- Plant response rating, Bluegrass ([8]; 125 g ai/ha): 100
- Plant response rating, Bluegrass ([8]; 250 g ai/ha): 100
- Plant response rating, Itchgrass ([9]; 31 g ai/ha): 0
- Plant response rating, Itchgrass ([9]; 62 g ai/ha): 45
- Plant response rating, Itchgrass ([9]; 125 g ai/ha): 60
- Plant response rating, Itchgrass ([9]; 250 g ai/ha): 90
- Plant response rating, Soybean ([10]; 31 g ai/ha): 0
- Plant response rating, Soybean ([10]; 62 g ai/ha): 15
- Plant response rating, Soybean ([10]; 125 g ai/ha): 20
- Plant response rating, Soybean ([10]; 250 g ai/ha): 35
- Plant response rating, Ryegrass, Italian ([11]; 31 g ai/ha): 0
- Plant response rating, Ryegrass, Italian ([11]; 62 g ai/ha): 35
- Plant response rating, Ryegrass, Italian ([11]; 125 g ai/ha): 45
- Plant response rating, Ryegrass, Italian ([11]; 250 g ai/ha): 95
- Plant response rating, Cupgrass, Woolly ([12]; 31 g ai/ha): 0
- Plant response rating, Cupgrass, Woolly ([12]; 62 g ai/ha): 40
- Plant response rating, Cupgrass, Woolly ([12]; 125 g ai/ha): 95
- Plant response rating, Cupgrass, Woolly ([12]; 250 g ai/ha): 100
- Plant response rating, Waterhemp ([13]; 31 g ai/ha): 0
- Plant response rating, Waterhemp ([13]; 62 g ai/ha): 0
- Plant response rating, Waterhemp ([13]; 125 g ai/ha): 100
- Plant response rating, Waterhemp ([13]; 250 g ai/ha): 100
- Plant response rating, Oat, Wild ([14]; 31 g ai/ha): 0
- Plant response rating, Oat, Wild ([14]; 62 g ai/ha): 0
- Plant response rating, Oat, Wild ([14]; 125 g ai/ha): 10
- Plant response rating, Oat, Wild ([14]; 250 g ai/ha): 20
- Plant response rating, Canarygrass ([15]; 31 g ai/ha): 0
- Plant response rating, Canarygrass ([15]; 62 g ai/ha): 40
- Plant response rating, Canarygrass ([15]; 125 g ai/ha): 100
- Plant response rating, Canarygrass ([15]; 250 g ai/ha): 100
- Plant response rating, Barley ([16]; Preemergence, 62 g ai/ha, scale 0 to 100): 0
- Plant response rating, Barley ([16]; Preemergence, 125 g ai/ha, scale 0 to 100): 0
- Plant response rating, Barley ([16]; Preemergence, 31 g ai/ha, scale 0 to 100): 0
- Plant response rating, Barley ([16]; preemergence, 250 g ai/ha, scale 0 (no effect) to 100 (complete control)): 15
- Plant response rating, Bromegrass, Downy ([17]; 31 g ai/ha): 0
- Plant response rating, Bromegrass, Downy ([17]; 62 g ai/ha): 45
- Plant response rating, Bromegrass, Downy ([17]; 125 g ai/ha): 55
- Plant response rating, Bromegrass, Downy ([17]; 250 g ai/ha): 55
- Plant response rating, Foxtail, Yellow ([18]; 31 g ai/ha): 0
- Plant response rating, Foxtail, Yellow ([18]; 62 g ai/ha): 75
- Plant response rating, Foxtail, Yellow ([18]; 125 g ai/ha): 100
- Plant response rating, Foxtail, Yellow ([18]; 250 g ai/ha): 100
- Plant response rating, Foxtail, Millet ([19]; 31 g ai/ha): 0
- Plant response rating, Foxtail, Millet ([19]; 62 g ai/ha): 80
- Plant response rating, Foxtail, Millet ([19]; 125 g ai/ha): 100
- Plant response rating, Foxtail, Millet ([19]; 250 g ai/ha): 100
- Plant response rating, Sorghum ([20]; 31 g ai/ha): 0
- Plant response rating, Sorghum ([20]; 62 g ai/ha): 10
- Plant response rating, Sorghum ([20]; 125 g ai/ha): 55
- Plant response rating, Sorghum ([20]; 250 g ai/ha): 100
- Plant response rating, Corn ([21]; 31 g ai/ha): 0
- Plant response rating, Corn ([21]; 62 g ai/ha): 0
- Plant response rating, Corn ([21]; 125 g ai/ha): 10
- Plant response rating, Corn ([21]; 250 g ai/ha): 60
- Plant response rating, Ducksalad [22]: 90
- Plant response rating, Blackgrass ([23]; 31 g ai/ha): 0
- Plant response rating, Blackgrass ([23]; 62 g ai/ha): 20
- Plant response rating, Blackgrass ([23]; 125 g ai/ha): 100
- Plant response rating, Blackgrass ([23]; 250 g ai/ha): 100
- Plant response rating, Field Violet ([24]; 31 g ai/ha): 70
- Plant response rating, Field Violet ([24]; 62 g ai/ha): 70
- Plant response rating, Field Violet ([24]; 125 g ai/ha): 85
- Plant response rating, Field Violet ([24]; 250 g ai/ha): 100
- Plant response rating, Wheat, Spring ([25]; 31 g ai/ha): 0
- Plant response rating, Wheat, Spring ([25]; 62 g ai/ha): 0
- Plant response rating, Wheat, Spring ([25]; 125 g ai/ha): 15
- Plant response rating, Wheat, Spring ([25]; 250 g ai/ha): 20
- Plant response rating, Wheat, Winter ([26]; 31 g ai/ha): 0
- Plant response rating, Wheat, Winter ([26]; 62 g ai/ha): 10
- Plant response rating, Wheat, Winter ([26]; 125 g ai/ha): 15
- Plant response rating, Wheat, Winter ([26]; 250 g ai/ha): 40
